Results from patent US20160168195A1, “OLIGOPEPTIDES AND PROCESS FOR PREPARATION THEREOF” (Council of Scientific & Industrial Research, priority 2011, published 2016).

Key:
[1] = in vivo; cited from earlier work
[2] = tested on: human cervical cancer cell line (HeLa); assay: Determination of IC50 in cancer cell lines (cell counting, trypan blue), HeLa; format: cell-based; conditions: 24 h with compound (1-40 nM), inhibition of cell proliferation, read-out: IC50 against He La cells
Procedure: (§1) Then the medium was replaced with fresh medium containing vehicle (0.1% DMSO) or different concentrations of compounds (1-40 nM) and the cells were grown for an additional 24 h. Both attached and floating cells were harvested and counted after staining with trypan blue (Rathinasamy et al, BMC Cancer 2010; 10:213). Percentage inhibition of cell proliferation was plotted against compound concentration using Origin Pro 7.5 software (Table 2).

[3] = tested on: MDA-MB-231 cells; assay: Determination of IC50 in cancer cell lines (cell counting, trypan blue), MDA-MB-231; format: cell-based, human; conditions: MDA-MB-231 (highly metastatic breast cancer)
Procedure: as §1

[4] = tested on: MCF-7 cells; assay: Determination of IC50 in cancer cell lines (cell counting, trypan blue), MCF-7; format: cell-based, human; conditions: MCF-7 (breast cancer)
Procedure: as §1

[5] = tested on: HeLa cells; assay: Apoptosis by annexin V and propidium iodide staining; format: cell-based, human; conditions: HeLa, 7, 15, 30 nM, 24 h
Procedure: (§2) After 40 h of incubation, cells were trypsinized and collected by centrifugation. After washing pellet twice in PBS, the cells were lysed in buffer (50 mM Tris pH 8.0, 10 mM EDTA, 0.5% sarcosine, and 0.5 mg/mL proteinase K), and incubated at 50° C. for 1 h in the heating block. RNase A (1 mg/mL) was added and incubation was further extended for 1 h. The samples were allowed to come to 25° C. Gel electrophoresis was done using 2% agarose and the fragmented genomic DNA visualized after staining with ethidium bromide using UV gel documentation system (FIG. 2) (Rathinasamy et al, FEBS J 2006; 273:4114). HeLa cells were incubated with different concentrations of compound 5 (7, 15 and 30 nM) for 24 h. Cells were stained with annexin V and propidium iodide. The number of cells undergoing apoptosis was estimated by counting the annexin V and propidium iodide positive cells (FIG. 13).

[6] = tested on: HeLa cells; assay: Apoptosis detection by DNA fragmentation assay; format: cell-based, human; conditions: HeLa, 7, 15, 30 nM, 40 h
Procedure: as §2

[7] = tested on: Goat brain tubulin; assay: Microtubule polymerization assay (light scattering); format: biochemical; conditions: tubulin 10 μM, 30 min, compared with compounds 1, 2, 3
Procedure: Microtubule polymerization assay: Goat brain tubulin (10 μM) was incubated without or with different compounds 1, 2, 3 and compound 5 (5 μM) in microtubule assembly buffer (1 M monosodium glutamate, 3 mM MgCl2, 1 mM EGTA and 25 mM PIPES pH 6.8) on ice for 20 minutes. Then, GTP (1 mM) was added to the reaction mixture. The assembly of tubulin was monitored at 37° C. using a spectrofluorometer for 30 min. Similar experiment was done with compound 5 (1, 5, 7 and 10 μM). MAPs-rich tubulin (1 mg/mL) was incubated without or with different concentrations of compound 5 (1, 3, 5 and 10 μM) in PEM buffer (25 mM pipes pH 6.8 containing 3 mM MgCl2 and 1mM EGTA) for 15 min on ice and then, 1 mM GTP was added to the reaction mixture. The effect of D1, D2, D3 and D5 on the assembly kinetics was monitored as described above for purified tubulin (FIG. 3) (Gupta and Panda, Biochemistry 2002; 41:13029) to study depolymerization of microtubules which is a mechanism of anticancer activity.

[8] = tested on: microtubules of HeLa cells; assay: Effect on interphase and mitotic microtubules of HeLa cells (immunostaining); format: cell-based, human
Procedure: Effect of Compound 5 on interphase and mitotic microtubules of HeLa cells: HeLa cells were seeded at a density of 0.6×10^5 cells/mL and were grown as monolayer on glass cover slips. Compounds diluted in Dimethyl sulfoxide (DMSO) (0.1% final concentration) were added to the culture medium 24 h after seeding. Then, the medium was replaced with fresh medium containing vehicle (0.1% DMSO) or different concentrations (7, 15, 30 nM) of compound 5 and the incubation continued for further 24 h. The cells were then fixed with 3.7% formaldehyde at 37° C. for 30 min and immunostained using tubulin antibody (FIGS. 4 and 5) (Mohan R and Panda D, Cancer Res. 2008, 68: 6181). The DNA was stained using Hoechst 33258 dye. The images were visualized by TE Eclipse 2000U fluorescence microscope (Nikon, Tokyo, Japan) and analyzed with Image-Pro Plus software.

[9] = tested on: solid tumors and soft tissue sarcomas; conditions: cited from earlier work

Q: Which “side effects (in words)” value [1] does the source give for Dolastatin-15 here?
A: The value was “severe side effects such as arterial hypertension and myocardial infarction”.

Q: With `CC[C@H](C)C([C@H](O)CC(=O)NCC1O[C@H](C(=O)NCc2ccccc2)[C@@H](OC)[C@@H]1OC)N(C)C(=O)[C@@H](NC(=O)[C@@H](NC)C(C)C)C(C)C` (stereo partly drawn) [Compound 8, Dov(R^1═H)-Val-(3R,4S,5S)-Dil(X═C(OH)H,Y═CH2)-SAA(2S)-Doe(R^2═H, n=0)] as the compound, how does the IC50 [2] read?
A: The IC50 was 0.012 µM.

Q: With `CC[C@H](C)C([C@@H](CC(=O)NCC1O[C@@H](C(=O)NCCc2ccccc2)[C@@H](OC)[C@@H]1OC)OC)N(C)C(=O)[C@@H](NC(=O)[C@@H](NC)C(C)C)C(C)C` (stereo partly drawn) [Compound 6, Dov(R^1═H)-Val-(3R,4S,5S)-Dil(X═C(OCH3)H,Y═CH2)-SAA(2R)-Doe(R^2═H, n=1)] as the compound, how does the IC50 [2] read?
A: The IC50 was 0.015 µM.

Q: With `CC[C@H](C)C([C@@H](CC(=O)NCC1O[C@H](C(=O)NCCc2ccccc2)[C@@H](OC)[C@@H]1OC)OC)N(C)C(=O)[C@@H](NC(=O)[C@@H](NC)C(C)C)C(C)C` (stereo partly drawn) [Compound 5, Dov(R^1═H)-Val-(3R,4S,5S)-Dil(X═C(OCH3)H,Y═CH2)-SAA(2S)-Doe(R^2═H, n=1)] as the compound, how does the IC50 [2] read?
A: Its IC50 is 0.0068 µM.

Q: And the “inhibition of proliferation of MDA-MB-231 cells (in words)” value [3]?
A: Its value is “inhibited proliferation”.

Q: What about the IC50 ([3]; 24 h, read-out: IC50 values for compound 5, MDA-MB-231 cells) of the same compound?
A: Its IC50 is 0.013 ± 0.005 µM.

Q: What about the “inhibition of proliferation of MCF-7 cells (in words)” value [4] of the same compound?
A: The value was “inhibited proliferation”.

Q: What about the IC50 ([4]; 24 h, read-out: IC50 values for compound 5, MCF-7 cells) of the same compound?
A: The IC50 was 0.015 ± 0.007 µM.

Q: And the “induction of apoptosis (Annexin V and PI staining, in words)” value [5]?
A: The value was “induced apoptosis”.

Q: And the “genomic DNA fragmentation (in words)” value [6]?
A: The value was “DNA fragmentation”.

Q: What about the “genomic DNA fragmentation (in words)” value ([6]; listed as D5) of the same compound?
A: Its value is “caused genomic DNA fragmentation”.

Q: What about the “effect on assembly of purified tubulin, relative potency (in words)” value [7] of the same compound?
A: The value was “maximum potency”.

Q: And the “effect on interphase microtubules of HeLa cells (in words)” value ([8]; 7, 15, 30 nM, 24 h)?
A: Its value is “perturbed microtubule network”.

Q: And the “effect on mitotic microtubules of HeLa cells (in words)” value ([8]; 7, 15, 30 nM, 24 h)?
A: Its value is “perturbed microtubule network”.

Q: And the “depolymerization of interphase and mitotic microtubules (in words)” value ([8]; at 15 to 30 nM)?
A: The value was “showed depolymerization of interphase and mitotic microtubules”.

Q: For Dolastatin-10, which “responses in phase I and II clinical trials (in words)” value ([9]; variety of solid tumors and soft tissue sarcomas, Von Mehren et al 2004) is on record?
A: Its value is “did not demonstrate any responses”.

Q: With `CC[C@H](C)C([C@H](O)CC(=O)NCC1O[C@@H](C(=O)NCc2ccccc2)[C@@H](OC)[C@@H]1OC)N(C)C(=O)[C@@H](NC(=O)[C@@H](NC)C(C)C)C(C)C` (stereo partly drawn) [Compound 7, Dov(R^1═H)-Val-(3R,4S,5S)-Dil(X═C(OH)H,Y═CH2)-SAA(2R)-Doe(R^2═H, n=0)] as the compound, how does the IC50 [2] read?
A: The IC50 was 0.016 µM.

Q: Which IC50 [2] does the source give for `CC[C@H](C)C([C@H](CC(=O)NCC1O[C@H](C(=O)N[C@@H](Cc2ccccc2)c2nccs2)[C@@H](OC)[C@@H]1OC)OC)N(C)C(=O)[C@@H](NC(=O)[C@@H](NC)C(C)C)C(C)C` (stereo partly drawn) [Compound 3, Dov(R^1═H)-Val-(3S,4S,5S)-Dil(X═C(OCH3)H,Y═CH2)-SAA(2S)-Doe(R^2=2-(thiazolyl), n=1)] here?
A: Its IC50 is 0.0099 µM.

Q: With `CC[C@H](C)C(/C=C/C(=O)NCC1O[C@@H](C(=O)N[C@@H](Cc2ccccc2)C2=NCCS2)[C@@H](OC)[C@@H]1OC)N(C)C(=O)[C@@H](NC(=O)[C@@H](NC)C(C)C)C(C)C` (stereo partly drawn) [Compound 1, Dov(R^1═H)-Val-(4S,5S)-Dil(X,Y═CH)-SAA(2R)-Doe(R^2=2-(4,5-dihydrothiazolyl), n=1)] as the compound, how does the IC50 [2] read?
A: Its IC50 is 0.0087 µM.

Q: With `CC[C@H](C)C([C@H](CC(=O)NCC1O[C@H](C(=O)N[C@@H](Cc2ccccc2)c2nccs2)[C@@H](OC)[C@@H]1OC)OC)N(C)C(=O)[C@@H](NC(=O)[C@H](C(C)C)N(C)C)C(C)C` (stereo partly drawn) [Compound 4, Dov(R^1=Me)-Val-(3S,4S,5S)-Dil(X═C(OCH3)H,Y═CH2)-SAA(2S)-Doe(R^2=2-(thiazolyl), n=1)] as the compound, how does the IC50 [2] read?
A: The IC50 was 0.016 µM.

Q: With TZT-1027 as the compound, how does the “activity in Phase II trials (in words)” value ([9]; Phase II, Patel et al 2006) read?
A: Its value is “no activity”.

Q: Which IC50 [2] does the source give for `CC[C@H](C)C(/C=C/C(=O)NCC1O[C@@H](C(=O)N[C@@H](Cc2ccccc2)C2=NCCS2)[C@@H](OC)[C@@H]1OC)N(C)C(=O)[C@@H](NC(=O)[C@H](C(C)C)N(C)C)C(C)C` (stereo partly drawn) [Compound 2, Dov(R^1=Me)-Val-(4S,5S)-Dil(X,Y═CH)-SAA(2R)-Doe(R^2=2-(4,5-dihydrothiazolyl), n=1)] here?
A: The IC50 was 0.0088 µM.
